Experimental findings from PMC4997885, “In Vitro and In Vivo Assessments of Cardiovascular Effects with Omadacycline” (Antimicrobial Agents and Chemotherapy, 2016) are described below.

The term IC50 denotes the midpoint of a concentration-inhibition curve. Usually EC50 stands for the concentration that produces a half-maximal response. Broadly, the IC25 is the point of the concentration-response curve where the effect stands at 25%. A lower IC25 goes with greater potency. One may read the inhibition as the relative decrease from the control value, in per cent.

≈ marks a conversion by molar mass, not a printed value.

One series addresses T1, M5 (Homo sapiens, UniProt P08912).
T1 construct: gene CHRM5; human recombinant receptor
T1 sequence (P08912 1-532): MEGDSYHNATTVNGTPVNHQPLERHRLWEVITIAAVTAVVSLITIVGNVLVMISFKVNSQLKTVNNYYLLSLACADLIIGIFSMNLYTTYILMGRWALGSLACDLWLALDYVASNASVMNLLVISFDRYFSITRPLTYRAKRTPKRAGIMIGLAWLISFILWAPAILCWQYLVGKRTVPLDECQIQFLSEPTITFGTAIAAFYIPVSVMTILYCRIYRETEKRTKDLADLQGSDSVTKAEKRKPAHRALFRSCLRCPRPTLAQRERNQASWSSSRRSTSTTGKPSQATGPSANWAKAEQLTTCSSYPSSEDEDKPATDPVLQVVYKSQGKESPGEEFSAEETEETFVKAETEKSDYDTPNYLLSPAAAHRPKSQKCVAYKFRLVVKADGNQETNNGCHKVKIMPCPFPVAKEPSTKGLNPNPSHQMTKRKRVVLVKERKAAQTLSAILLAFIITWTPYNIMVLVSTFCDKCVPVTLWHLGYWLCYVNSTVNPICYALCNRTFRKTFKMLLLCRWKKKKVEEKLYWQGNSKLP
The experiment in a line: radioligand binding inhibition. The conditions noted are these: […] separate tests; read-out: EC50 or IC50. An excerpt:
radioligand binding inhibition on M5

The next series addresses T2, M4 (Homo sapiens, UniProt P08173).
T2 construct: gene CHRM4; human recombinant receptor
T2 sequence (P08173 1-479): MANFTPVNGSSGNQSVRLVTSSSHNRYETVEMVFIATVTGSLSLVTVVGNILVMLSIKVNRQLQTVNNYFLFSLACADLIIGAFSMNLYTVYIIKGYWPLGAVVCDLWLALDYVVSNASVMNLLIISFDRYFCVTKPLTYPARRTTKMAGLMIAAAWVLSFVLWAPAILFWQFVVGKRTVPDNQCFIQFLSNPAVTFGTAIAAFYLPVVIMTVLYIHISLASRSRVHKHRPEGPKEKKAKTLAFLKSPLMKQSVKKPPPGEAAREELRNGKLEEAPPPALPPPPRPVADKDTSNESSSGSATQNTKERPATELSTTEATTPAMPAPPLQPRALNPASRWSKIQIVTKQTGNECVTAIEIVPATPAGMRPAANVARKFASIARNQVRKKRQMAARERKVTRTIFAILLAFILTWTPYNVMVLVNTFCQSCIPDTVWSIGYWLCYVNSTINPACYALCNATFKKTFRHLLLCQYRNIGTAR
In words: radioligand binding inhibition. The conditions noted are these: […] separate tests; read-out: EC50 or IC50. An excerpt: radioligand binding inhibition on M4

Series [1] concerns the target T3, M2 (muscarinic subtype 2 acetylcholine receptor) (Homo sapiens, UniProt P08172).
T3 construct: gene CHRM2; human recombinant receptor
T3 sequence (P08172 1-466): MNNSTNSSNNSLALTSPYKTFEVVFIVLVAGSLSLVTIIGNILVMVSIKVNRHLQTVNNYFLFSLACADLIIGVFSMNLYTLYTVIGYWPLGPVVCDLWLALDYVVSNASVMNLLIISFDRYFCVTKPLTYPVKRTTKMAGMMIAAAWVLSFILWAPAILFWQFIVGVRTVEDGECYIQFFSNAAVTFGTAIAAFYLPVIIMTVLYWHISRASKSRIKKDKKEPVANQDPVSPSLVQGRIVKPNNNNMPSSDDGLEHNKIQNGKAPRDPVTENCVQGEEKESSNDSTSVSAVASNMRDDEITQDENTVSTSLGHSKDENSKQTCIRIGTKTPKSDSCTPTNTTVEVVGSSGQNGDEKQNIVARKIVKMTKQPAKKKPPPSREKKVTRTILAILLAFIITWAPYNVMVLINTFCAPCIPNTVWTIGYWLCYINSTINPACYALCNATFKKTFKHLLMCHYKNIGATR
In words: functional M2 agonist assay. In kind it is cell-based. The conditions noted are these: agonist mode; […] separate tests; read-out: EC50 or IC50. An excerpt: functional M2 agonist assay on M2 (muscarinic subtype 2 acetylcholine receptor)

The target of a further series is T4, M1 (Homo sapiens, UniProt P11229).
T4 construct: gene CHRM1; human recombinant receptor
T4 sequence (P11229 1-460): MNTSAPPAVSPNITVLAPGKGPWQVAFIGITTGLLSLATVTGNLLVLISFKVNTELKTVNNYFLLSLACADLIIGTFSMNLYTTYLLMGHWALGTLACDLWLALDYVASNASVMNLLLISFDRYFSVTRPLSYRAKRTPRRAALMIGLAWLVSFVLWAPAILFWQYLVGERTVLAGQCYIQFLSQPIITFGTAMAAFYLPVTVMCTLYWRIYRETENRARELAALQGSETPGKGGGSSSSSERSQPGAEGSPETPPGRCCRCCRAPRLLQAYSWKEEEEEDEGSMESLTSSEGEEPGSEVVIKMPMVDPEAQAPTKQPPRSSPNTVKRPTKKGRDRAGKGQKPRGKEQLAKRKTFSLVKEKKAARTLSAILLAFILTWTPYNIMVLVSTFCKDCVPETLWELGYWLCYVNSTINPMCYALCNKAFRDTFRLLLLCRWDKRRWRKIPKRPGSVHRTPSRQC
In words: radioligand binding inhibition. The conditions noted are these: […] test; read-out: EC50 or IC50. An excerpt:
radioligand binding inhibition on M1

Series [2] addresses T3, M2 (muscarinic subtype 2 acetylcholine receptor). The experiment in a line: radioligand binding inhibition. The conditions noted are these: range of […] separate tests ([…] and […]).
Series [3] concerns the target T5, hERG (human ether-a-go-go-related gene) channel (Homo sapiens, UniProt Q12809).
T5 construct: gene KCNH2; hERG cDNA stably transfected in HEK293 cells; homotetramer
In words: hERG tail current electrophysiology, HEK293 cells. The conditions noted are these: room temperature; […] tested; corrected for vehicle rundown; point-to-point fit. In kind it is cell-based. Background: Block of hERG is tested as a sign of cardiac risk.

Series [4] has as its target T3, M2 (muscarinic subtype 2 acetylcholine receptor). In words: functional M2 antagonist assay. The series is classed as cell-based. The conditions noted are these: antagonist mode; range of […] separate tests ([…]).
For series [5] the target is unchanged. The experiment in a line: radioligand binding inhibition screen. The conditions noted are these: read-out: % inhibition or stimulation^a. An excerpt:
radioligand binding inhibition screen on M2 (muscarinic subtype 2 acetylcholine receptor)

The target in series [6] is T6, M3 (muscarinic receptor M3) (Homo sapiens, UniProt P20309).
T6 construct: gene CHRM3; human recombinant receptor
The experiment in a line: radioligand binding inhibition. The conditions noted are these: […] test; read-out: EC50 or IC50. The source says: radioligand binding inhibition on M3 (muscarinic receptor M3)

T5 sequence (Q12809 whole entry): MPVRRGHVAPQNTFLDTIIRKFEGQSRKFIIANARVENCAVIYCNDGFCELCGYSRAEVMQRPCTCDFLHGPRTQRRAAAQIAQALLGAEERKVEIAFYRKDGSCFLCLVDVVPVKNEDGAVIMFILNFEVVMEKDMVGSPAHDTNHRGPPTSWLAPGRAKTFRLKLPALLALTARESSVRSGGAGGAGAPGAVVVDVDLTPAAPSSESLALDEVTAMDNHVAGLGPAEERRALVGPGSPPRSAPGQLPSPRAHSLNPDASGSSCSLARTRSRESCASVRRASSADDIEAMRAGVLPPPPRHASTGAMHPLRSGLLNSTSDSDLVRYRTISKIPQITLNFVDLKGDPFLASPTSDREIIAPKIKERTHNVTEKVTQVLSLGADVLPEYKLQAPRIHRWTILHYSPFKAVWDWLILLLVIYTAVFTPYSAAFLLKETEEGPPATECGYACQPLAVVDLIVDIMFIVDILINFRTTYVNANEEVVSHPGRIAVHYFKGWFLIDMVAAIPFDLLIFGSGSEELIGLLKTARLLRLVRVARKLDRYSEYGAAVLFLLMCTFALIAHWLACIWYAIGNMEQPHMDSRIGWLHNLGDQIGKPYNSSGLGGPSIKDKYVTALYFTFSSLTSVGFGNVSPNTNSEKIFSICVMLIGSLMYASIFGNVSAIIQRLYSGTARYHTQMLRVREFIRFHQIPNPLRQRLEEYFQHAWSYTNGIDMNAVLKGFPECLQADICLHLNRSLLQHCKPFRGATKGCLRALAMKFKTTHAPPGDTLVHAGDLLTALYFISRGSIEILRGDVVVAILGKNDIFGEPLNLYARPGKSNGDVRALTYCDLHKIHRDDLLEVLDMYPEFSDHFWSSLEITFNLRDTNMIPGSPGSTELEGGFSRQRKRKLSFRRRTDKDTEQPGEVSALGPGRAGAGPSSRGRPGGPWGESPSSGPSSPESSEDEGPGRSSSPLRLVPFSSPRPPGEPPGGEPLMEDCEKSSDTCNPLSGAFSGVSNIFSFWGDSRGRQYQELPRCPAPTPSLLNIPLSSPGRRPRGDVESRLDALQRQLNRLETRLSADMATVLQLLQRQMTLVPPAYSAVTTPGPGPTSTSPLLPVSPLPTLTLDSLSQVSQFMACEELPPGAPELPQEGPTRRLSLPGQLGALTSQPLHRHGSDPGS
T6 sequence (P20309 whole entry): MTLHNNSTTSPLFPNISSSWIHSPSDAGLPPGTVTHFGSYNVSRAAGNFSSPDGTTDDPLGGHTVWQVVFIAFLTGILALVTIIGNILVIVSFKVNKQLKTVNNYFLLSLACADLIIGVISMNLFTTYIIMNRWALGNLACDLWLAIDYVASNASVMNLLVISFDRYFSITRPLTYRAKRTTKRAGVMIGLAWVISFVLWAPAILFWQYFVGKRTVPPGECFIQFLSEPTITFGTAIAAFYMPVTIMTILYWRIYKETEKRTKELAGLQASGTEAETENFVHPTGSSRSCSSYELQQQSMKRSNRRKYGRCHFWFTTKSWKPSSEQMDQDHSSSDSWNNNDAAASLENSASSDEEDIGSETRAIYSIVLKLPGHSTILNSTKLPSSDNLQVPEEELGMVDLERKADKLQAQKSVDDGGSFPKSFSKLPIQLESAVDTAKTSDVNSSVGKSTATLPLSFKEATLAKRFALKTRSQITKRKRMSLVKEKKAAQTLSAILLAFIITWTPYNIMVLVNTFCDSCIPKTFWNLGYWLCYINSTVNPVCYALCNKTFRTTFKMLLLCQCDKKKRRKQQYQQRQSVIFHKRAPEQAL

In the case of `CN(C)c1cc(CNCC(C)(C)C)c(O)c2c1C[C@H]1C[C@H]3[C@H](N(C)C)C(=O)C(C(N)=O)=C(O)[C@@]3(O)C(=O)C1=C2O` [omadacycline], the IC50 is more than 30 µM on M5; more than 30 µM at M4; 29 µM at M1; 4.2 to 4.3 µM in series [2]; 21 to 28 µM in series [4]; more than 30 µM in [6]. Moreover, the EC50 in [1] was more than 30 µM. In series [3], the IC25 was 166 µg/mL (≈ 298 µM). The inhibition at 10 µM in series [5] was found to be 82%.
